Results reported in patent publication US20100234231A1, “YIELD ENHANCING AGENT FOR HARVESTING PART OF CROP” (priority 2009, published 2010).

Tests used:
Format in all cases: in vivo
barley = test: Effect of enhancing yield of barley grains (pot test, treatment around ear emergence)
Experimental: A certain amount of kuroboku soil was placed in a 15-L Polybucket (1/17500×10 a), a liquid fertilizer Hyponica was applied as a basal fertilizer such that N-P-K=5.0-2.8-8.5 kg/10 a, and barley was sowed (11/3). Five stocks of seedlings were planted per bucket, and in the middle of growth, thinning was performed to make the test zone uniform so that there would be 3 stocks per bucket. Five days before ear emergence (4/15), prohexadione calcium salt was used as an gibberellin biosynthesis inhibitor to treat at 7.0, 3.5 […]) (4/10). Furthermore, a treatment with 5-aminolevulic acid hydrochloride was performed at 0.15 […]) under the conditions of performing a foliage treatment each time at the respective times of before (4/3), simultaneously with (4/10) and after (5/8) the treatment with prohexadione calcium salt. […] Four buckets were used per test zone.

[1] = system: sunflower (variety: Hybrid Sunflower); test: Effect of enhancing yield of sunflower seeds (field test, treatment after flowering); conditions: ALA hydrochloride 0.2 g/10a foliage x2, uniconazole P 0.3 g/10a, 7 days after flowering; for Number of filled seeds / Weight of filled seeds: empty seeds excluded
Experimental: A test field (red soil) was divided into 0.7 m^2 per compartment, and sunflower (variety: Hybrid Sunflower) was planted (6/9). A synthetic fertilizer was applied as a basal fertilizer such that N-P-K=5.0-5.0-5.0 kg/10 a (6/9). Four stocks were planted per test zone, and in the middle of growth, thinning was performed to make the test zone uniform so that there would be two stocks per test zone. Seven days after flowering, a Sumiseven P liquid preparation (containing 0.025% of uniconazole P) as an gibberellin biosynthesis inhibitor was used for treatment such that the amount of treatment of uniconazole P would be 0.3 […]) (8/20). Furthermore, a foliage treatment with 5-aminolevulic acid hydrochloride was performed at 0.2 […]), two times in total at the date of uniconazole P treatment (8/20) and 2 weeks after the uniconazole P treatment (9/3). As additional fertilization, a synthetic fertilizer was applied such that N-P-K=3.0-3.0-3.0 kg/10 a (7/8). After harvesting (9/16), the number and weight of seeds of each plant body were measured. This time, empty seeds without kernels were excluded. The test zone was provided as 6 test zones under each condition.

[2] = system: radish (variety: Red Chime); test: Effect of enhancing yield of radish hypocotyl (pot test); conditions: ALA hydrochloride 0.1 g/10a foliage 6 days after prohexadione; prohexadione calcium salt 15 g/10a, 10 days after initiation of hypocotyl enlargement
Experimental: A certain amount of kuroboku soil was placed in a No. 6 pot (1/75000×10 a), and radish (variety: Red Chime) was planted (5/4). A liquid fertilizer Hyponica was applied as a basal fertilizer such that N-P-K=5.0-2.8-8.5 kg/10 a (5/8). Five stocks were planted per pot, and in the middle of growth, thinning was performed to make the test zone uniform so that there would be 3 stocks per pot. Ten days after the initiation of hypocotyl enlargement, prohexadione calcium salt was used as an gibberellin biosynthesis inhibitor to treat at 15 […]) (5/27). Furthermore, a treatment with 5-aminolevulic acid hydrochloride was performed at 0.1 […]) under the conditions of performing a foliage treatment (6/2) six days after the treatment with prohexadione calcium salt. […] Seven pots were used per test zone.

Turnip (variety: Honami) = test: Comparative Example: combined treatment during seedling growth, turnip yield (field test); conditions: ALA hydrochloride 0.2 g/10a; prohexadione calcium salt 20 g/10a; 7 days before initiation of enlargement (seedling growth)
Experimental: Turnip (variety: […] At this time, a synthetic fertilizer was applied as a basal fertilizer such that N-P-K=5-5-5 kg/10 a. Four stocks were planted per test zone, and 4 test zones were set up randomly for one condition so as not to be affected by the place. […] After harvesting (11/12), the weights of the aerial part and the terrestrial part of the plant body were measured.

[3] = system: rice (variety: Koshihikari); test: Effect of enhancing yield of rice (pot test, treatment after ear emergence); conditions: for Number of ears per stock / Number of rice grains per ear / Weight of thousand grains / Ripening rate: ALA hydrochloride 0.1 g/10 a foliage x3, prohexadione calcium salt 0.4 g/10 a, 3 days after ear emergence; for Ripening rate: number of rice grains having specific gravity of 1.06 or more/number of total rice grains x100, in %; for Yield of rice per stock: product of ears per stock, grains per ear, ripening rate and thousand-grain weight, ALA hydrochloride 0.1 g/10 a, prohexadione calcium salt 0.4 g/10 a
Experimental: Seeds of rice (variety: Koshihikari) were sterilized with 70% ethanol, and rice seeds heavier than a specific gravity of 1.13 were screened by brine washing. Water absorption for one night at 30° C. and germination for one night were carried out, and then the seeds were sowed in a seedling box (4/11). A certain amount of kuroboku soil was placed in a 15-L Polybucket (1/17500×10 a), a synthetic fertilizer was mixed therein as a basal fertilizer such that N-P-K=5-5-5 kg/10 a, and water was drawn in to a water depth of 3 cm. Grown seedlings were planted at 3 stocks per bucket (5/15). […] Furthermore, 5-aminolevulic acid (ALA) hydrochloride was used for a foliage treatment for three times (8/14, 8/30, 9/10) at 0.1 […]). Four buckets were used for one test zone, and the buckets were placed randomly so as not to be affected by the place.

Compound	Weight of grains per stock (barley; ALA hydrochloride 0.15 g.a.i/10 a at the time 7 days before prohexadione calcium salt treatment (4/3), prohexadione calcium salt none) [g]	Weight of grains per stock (barley; ALA hydrochloride 0.15 g.a.i/10 a at the time 28 days after prohexadione calcium salt treatment (5/8), prohexadione calcium salt none) [g]	Weight of grains per stock (barley; ALA hydrochloride 0.15 g.a.i/10 a at the time simultaneous with prohexadione calcium salt treatment (4/10), prohexadione calcium salt none) [g]	Live weight of plant body [1] [kg/stock]	Number of filled seeds [1] [seeds/stock]	Weight of filled seeds [1] [g/stock]	Fresh weight of hypocotyl [2] [g]	Weight of aerial part (Turnip (variety: Honami)) [kg/stock]	Weight of terrestrial part (Turnip (variety: Honami)) [kg/stock]	Number of ears per stock [3]	Number of rice grains per ear [3]	Weight of thousand grains [3] [g]	Ripening rate [3]	Yield of rice per stock [3] [g]	Weight of grains per stock (barley; ALA hydrochloride none, prohexadione calcium salt 3.5 g.a.i/10 a, 5 days before ear emergence) [g]	Weight of grains per stock (barley; ALA hydrochloride none, prohexadione calcium salt 7 g.a.i/10 a, 5 days before ear emergence) [g]
Cl.NCC(=O)CCC(=O)O [ALA hydrochloride, 5-aminolevulic acid hydrochloride]	6.59	6.45	6.83	1.68	1348	120.5	12.2	0.368	0.725	20.2	80.12	21.9	88.71	31.4		
CCC(=O)C1=C([O-])CC(C(=O)[O-])CC1=O.[Ca+2] (stereo not drawn) [Prohexadione calcium salt, calcium 3-oxido-5-oxo-4-propionyl-3-cyclohexene carboxylate]							10.3	0.349	0.641	20.2	80.35	22.22	86.09	31.0	6.23	6.60
CC(C)(C)[C@H](O)/C(=C\c1ccc(Cl)cc1)n1cncn1 [Uniconazole P, (E)-(S)-1-(4-chlorophenyl)-4,4-dimethyl-2-(1H-1,2,4-triazol-1-yl)pent-1-en-3-ol]				1.96	1377	126.3										
